Measured values from the NIST ThermoML archive (doi:10.1021/acs.jced.9b00134).

Columns and labels:
[1] = 293.15 K, 101.13 kPa, Vibrating tube method
[2] = xn = mol fraction of the nth substance listed; conditions: 101.13 kPa, Liquid, x1 = 0.5; for mass density: Vibrating tube method; for electrical conductivity: Alternating current cell with electrodes; for viscosity: Concentric cylinders viscometry
[3] = refractive index (Na D-line) (dimensionless); xn = mol fraction of the nth substance listed; conditions: 101.13 kPa, Liquid, Standard Abbe refractometry, x1 = 0.5

CCC(O)CO (stereo not given) [1,2-butanediol]
Conditions | mass density [kg/m3]
[1], Liquid | 1000

OCCO [1,2-ethanediol]
Conditions | mass density [kg/m3]
[1], Liquid | 1105

OCCCCCCO [1,6-hexanediol]
Conditions | mass density [kg/m3]
[1], Liquid | 947

OCC(O)CO [glycerol]
Conditions | mass density [kg/m3]
[1], Liquid | 1238

O=C([O-])[O-].[Na+].[Na+] [sodium carbonate]
Conditions | mass density [kg/m3]
[1], Crystal | 2516

C[N+](C)(C)Cc1ccccc1.[Cl-] [trimethylbenzylammonium chloride]
Conditions | mass density [kg/m3]
[1], Crystal | 1061

C[N+](C)(C)Cc1ccccc1.[Cl-] [trimethylbenzylammonium chloride] + CCC(O)CO
Conditions | electrical conductivity, [2] [S/m] | mass density, [2] [kg/m3] | refractive index, [3] | viscosity, [2] [mPa·s]
293 K | – | 1104 | 1.4982 | –
298 K | 0.194 | 1093 | 1.4956 | 231.7
303 K | 0.312 | 1083 | 1.4921 | 128.5
308 K | 0.382 | 1073 | 1.4892 | 64.2
313 K | 0.437 | 1064 | 1.4851 | 34.5
318 K | 0.465 | 1057 | 1.4823 | 22.1
323 K | 0.532 | 1049 | 1.4781 | 17.9

C[N+](C)(C)Cc1ccccc1.[Cl-] [trimethylbenzylammonium chloride] + OCC(O)CO
Conditions | electrical conductivity, [2] [S/m] | mass density, [2] [kg/m3] | refractive index, [3] | viscosity, [2] [mPa·s]
293 K | – | 1170.3 | 1.5653 | –
298 K | 0.0688 | 1167.2 | 1.5612 | 383.9
303 K | 0.115 | 1164.3 | 1.5587 | 159.6
308 K | 0.123 | 1161.4 | 1.556 | 79.8
313 K | 0.126 | 1158.4 | 1.5532 | 48.5
318 K | 0.123 | 1155 | 1.5503 | 29.7
323 K | 0.178 | 1152.4 | 1.5493 | 18.3

C[N+](C)(C)Cc1ccccc1.[Cl-] [trimethylbenzylammonium chloride] + OCCCCCCO
Conditions | electrical conductivity, [2] [S/m] | mass density, [2] [kg/m3] | refractive index, [3] | viscosity, [2] [mPa·s]
293 K | – | 1142.3 | 1.5143 | –
298 K | 0.0842 | 1132.6 | 1.5107 | 298.3
303 K | 0.145 | 1126.2 | 1.5083 | 143.6
308 K | 0.17 | 1119.7 | 1.5052 | 72.9
313 K | 0.184 | 1113.4 | 1.5016 | 38.7
318 K | 0.195 | 1107.1 | 1.4987 | 23.5
323 K | 0.253 | 1100 | 1.4963 | 16.8

C[N+](C)(C)Cc1ccccc1.[Cl-] [trimethylbenzylammonium chloride] + OCCO
Conditions | electrical conductivity, [2] [S/m] | mass density, [2] [kg/m3] | refractive index, [3] | viscosity, [2] [mPa·s]
293 K | – | 1123.7 | 1.4806 | –
298 K | 0.539 | 1118 | 1.4763 | 137.3
303 K | 0.706 | 1111.2 | 1.4731 | 96.5
308 K | 0.843 | 1105.1 | 1.4695 | 54.6
313 K | 0.902 | 1098 | 1.4652 | 28.9
318 K | 0.965 | 1091 | 1.4611 | 20.7
323 K | 1.02 | 1085 | 1.4587 | 14.2
